Measurements from patent US12371748B2, “Genetic markers for predicting responsiveness to therapy with HDL-raising or HDL mimicking agent” (Hoffmann-La Roche Inc., priority 2014, dated 2025).

System: patients with evidence of coronary artery disease
Assay: dal-PLAQUE-2: change in carotid intima-media thickness (B-mode ultrasound) by ADCY9 genotype
Type: in vivo, human
Excerpt: The dal-PLAQUE-2 study (Tardif J C et al, Circulation Cardiovascular imaging 2011; 4:319-33) was a phase 3b multicenter, double-blind, randomized, placebo-controlled, parallel group trial designed to evaluate the effect of dalcetrapib on atherosclerotic disease progression in patients with evidence of coronary artery disease and carotid intima media thickness of at least 0.65 mm in the far wall of the common carotid arteries, as assessed by B-mode ultrasonography. A total of 931 patients were randomized to receive dalcetrapib 600 mg daily or matching placebo with intended treatment duration of 24 months. However, the trial was terminated prematurely concurrent with the termination of dal OUTCOMES (the latter due to futility). Patients continued study medication until they returned for follow-up carotid imaging at 12 months. Carotid B-mode ultrasound recordings at baseline, month 6, and month 12 were analyzed centrally at the core laboratory of the Montreal Heart Institute. Intima-media thickness (IMT) was analyzed on the far wall of the common carotid arteries. A segment of 10 mm in length of the common carotid artery was analyzed on serial examinations using an automated edge detection software (Carotid Analyzer, Medical Imaging Applications, Coralville, Iowa). Among the 411 participants in the dal-PLAQUE-2 trial who consented to the genetic study, 386 had imaging measures at baseline, 6 months and 12 months (194 and 192 in the dalcetrapib and placebo arms respectively). DNA was extracted from whole blood. The research protocols were approved by the relevant institutional review boards or ethics committees and all human participants gave written informed consent.
All acquired carotid ultrasound recordings were analyzed at the core laboratory of the Montreal Heart Institute by experienced technicians supervised by a physician. Images were required to meet quality and inclusion and exclusion criteria for eligibility prior to random assignment to study treatment. The methods for carotid intima-media thickness analysis included side-by-side viewing of baseline and follow-up studies.
Carotid arterial wall segments were assessed in a longitudinal view, perpendicular to the ultrasound beam, with a horizontal display of the arterial image in order to view the interfaces between blood and vascular structures on the longest possible segment. The localization of the end of the common carotid artery was used as the landmark in repositioning and analyzing comparative length of segments in baseline and follow-up studies. Intima-media thickness was analyzed on the far wall of the right and left common carotid arteries, to reduce variability of measurements. The average of the mean intima-media thickness values of the right and left common carotid arteries was used. A matched segment of 10 mm in length of the common carotid artery was analyzed on serial examinations (baseline, 6 months and 12 months), starting 5 mm proximal to the carotid bifurcation. The edge detection software Carotid Analyzer (Medical Imaging Applications LLC, Coralville, Iowa) was used to analyze intima-media thickness using the automated option. Two sets of carotid artery borders were identified: First, the media-adventitia borders were determined and verified by the reader. When required, their locations were semi-automatically modified to the correct location. When these borders were approved, the lumen-intima boundaries were automatically detected using the media-adventitia borders for guidance. Frames from looped sequences of intima-media thickness were selected for reading, and poor quality outlier frames were removed from the analysis when required.
For the dal-Plaque-2 population, mixed regression models for repeated measures analysis were tested in SAS software. The dal-Plaque-2 tested endpoint was the mean of IMT measures of common carotid arteries at the 6-month and the 12-month visits, using the baseline measure as covariate. […]

CCC(CC)CC1(C(=O)Nc2ccccc2SC(=O)C(C)C)CCCCC1 [dalcetrapib, thioisobutyric acid S-(2-{[1-(2-ethyl-butyl)-cyclohexanecarbonyl]-amino}-phenyl) ester]
Change from baseline in carotid intima-media thickness, Mean (rs8061182, homozygotes for minor allele, M12): −0.001 mm
Change from baseline in carotid intima-media thickness, Mean (rs11647778, heterozygotes, M06): −0.002 mm
Change from baseline in carotid intima-media thickness, Mean (rs11647778, heterozygotes, M12): 0.001 mm
Change from baseline in carotid intima-media thickness, Mean (rs11647778, homozygotes for major allele, M06): 0.011 mm
Change from baseline in carotid intima-media thickness, Mean (rs11647778, homozygotes for major allele, M12): 0.008 mm
Change from baseline in carotid intima-media thickness, Mean (rs11647778, homozygotes for minor allele, M06): −0.013 mm
Change from baseline in carotid intima-media thickness, Mean (rs11647778, homozygotes for minor allele, M12): −0.026 mm
Change from baseline in carotid intima-media thickness, Mean (rs11647828, heterozygotes, M06): −0.002 mm
Change from baseline in carotid intima-media thickness, Mean (rs11647828, heterozygotes, M12): −0.003 mm
Change from baseline in carotid intima-media thickness, Mean (rs11647828, homozygotes for major allele, M06): 0.011 mm
Change from baseline in carotid intima-media thickness, Mean (rs11647828, homozygotes for major allele, M12): 0.009 mm
Change from baseline in carotid intima-media thickness, Mean (rs11647828, homozygotes for minor allele, M06): −0.018 mm
Change from baseline in carotid intima-media thickness, Mean (rs11647828, homozygotes for minor allele, M12): −0.020 mm
Change from baseline in carotid intima-media thickness, Mean (rs12595857, heterozygotes, M06): −0.003 mm
Change from baseline in carotid intima-media thickness, Mean (rs12595857, heterozygotes, M12): −0.002 mm
Change from baseline in carotid intima-media thickness, Mean (rs12595857, homozygotes for major allele, M06): 0.011 mm
Change from baseline in carotid intima-media thickness, Mean (rs12595857, homozygotes for major allele, M12): 0.010 mm
Change from baseline in carotid intima-media thickness, Mean (rs12595857, homozygotes for minor allele, M06): −0.008 mm
Change from baseline in carotid intima-media thickness, Mean (rs12595857, homozygotes for minor allele, M12): −0.018 mm
Change from baseline in carotid intima-media thickness, Mean (rs12599911, heterozygotes, M06): −0.003 mm
Change from baseline in carotid intima-media thickness, Mean (rs12599911, heterozygotes, M12): −0.002 mm
Change from baseline in carotid intima-media thickness, Mean (rs12599911, homozygotes for major allele, M06): 0.011 mm
Change from baseline in carotid intima-media thickness, Mean (rs12599911, homozygotes for major allele, M12): 0.010 mm
Change from baseline in carotid intima-media thickness, Mean (rs12599911, homozygotes for minor allele, M06): −0.008 mm
Change from baseline in carotid intima-media thickness, Mean (rs12599911, homozygotes for minor allele, M12): −0.019 mm
Change from baseline in carotid intima-media thickness, Mean (rs12920508, heterozygotes, M06): −0.003 mm
Change from baseline in carotid intima-media thickness, Mean (rs12920508, heterozygotes, M12): −0.001 mm
Change from baseline in carotid intima-media thickness, Mean (rs12920508, homozygotes for major allele, M06): 0.006 mm
Change from baseline in carotid intima-media thickness, Mean (rs12920508, homozygotes for major allele, M12): 0.005 mm
Change from baseline in carotid intima-media thickness, Mean (rs12920508, homozygotes for minor allele, M06): −0.005 mm
Change from baseline in carotid intima-media thickness, Mean (rs12920508, homozygotes for minor allele, M12): −0.021 mm
Change from baseline in carotid intima-media thickness, Mean (rs12935810, heterozygotes, M06): −0.003 mm
Change from baseline in carotid intima-media thickness, Mean (rs12935810, heterozygotes, M12): −0.001 mm
Change from baseline in carotid intima-media thickness, Mean (rs12935810, homozygotes for major allele, M06): −0.006 mm
Change from baseline in carotid intima-media thickness, Mean (rs12935810, homozygotes for major allele, M12): −0.007 mm
Change from baseline in carotid intima-media thickness, Mean (rs12935810, homozygotes for minor allele, M06): 0.021 mm
Change from baseline in carotid intima-media thickness, Mean (rs12935810, homozygotes for minor allele, M12): 0.010 mm
Change from baseline in carotid intima-media thickness, Mean (rs13337675, heterozygotes, M06): 0.002 mm
Change from baseline in carotid intima-media thickness, Mean (rs13337675, heterozygotes, M12): 0.005 mm
Change from baseline in carotid intima-media thickness, Mean (rs13337675, homozygotes for minor allele, M06): 0.016 mm
Change from baseline in carotid intima-media thickness, Mean (rs13337675, homozygotes for minor allele, M12): −0.011 mm
Change from baseline in carotid intima-media thickness, Mean (rs17136707, heterozygotes, M06): −0.006 mm
Change from baseline in carotid intima-media thickness, Mean (rs17136707, heterozygotes, M12): −0.004 mm
Change from baseline in carotid intima-media thickness, Mean (rs17136707, homozygotes for minor allele, M06): −0.015 mm
Change from baseline in carotid intima-media thickness, Mean (rs17136707, homozygotes for minor allele, M12): −0.008 mm
Change from baseline in carotid intima-media thickness, Mean (rs74702385, heterozygotes, M06): −0.006 mm
Change from baseline in carotid intima-media thickness, Mean (rs74702385, heterozygotes, M12): −0.002 mm
Change from baseline in carotid intima-media thickness, Mean (rs74702385, homozygotes for minor allele, M06): −0.015 mm
Change from baseline in carotid intima-media thickness, Mean (rs74702385, homozygotes for minor allele, M12): −0.008 mm
Change from baseline in carotid intima-media thickness, Mean (rs111590482, heterozygotes, M06): −0.006 mm
Change from baseline in carotid intima-media thickness, Mean (rs111590482, heterozygotes, M12): −0.002 mm
Change from baseline in carotid intima-media thickness, Mean (rs111590482, homozygotes for minor allele, M06): −0.015 mm
Change from baseline in carotid intima-media thickness, Mean (rs111590482, homozygotes for minor allele, M12): −0.008 mm
